# Test results: patent US4201866A, “O-Hemi-succinate of propranolol” (American Home Products Corporation, priority 1977, dated 1980)
# Several values for one entry are separate records, joined by “and”; a condition that tells them apart may be missing. Equal entries are not always repeated. Structures can show the parent of a compound that is named as a salt. Where two headings read alike, the source gives them in different places.
# How the values were obtained:
# [1] = Intravenous administration of propranolol HCl and propranolol-o-hemi-succinate HCl; plasma levels of free propranolol (Example 3); format: in vivo, beagle dogs; conditions: i.v., 20 mg propranolol HCl or equivalent
# Method: (§1) Plasma was analyzed for free propranolol by a TLC fluorometric procedure. Two ml samples were mixed with 2 ml of pH 10 buffer and extracted with 25 ml of ethyl ether. A 20 ml aliquot from the ether phase was evaporated to dryness and the dry residue was dissolved in 100 μl of ethanol. Twenty-five μl aliquots were spotted on TLC plates of silica gel along with standard solutions of propranolol. The plates were developed in a saturated tank containing the solvent system methanol (100 ml): concentrated NH4 OH (0.4 ml). After development, the plates were dried and sprayed with a 50% solution of propylene glycol in water. They were then read in the fluorescence mode of a Schoeffel spectrodensitometer. The limit of reliable quantitation was 2 ng. of propranolol per ml of plasma.
# In this experiment, the same four dogs used in Example 2 were administered a 20 mg intravenous dose of propranolol HCl on one experimental day and an equivalent dose of the o-hemi-succinate on a second day. A period of one week elapsed between each administration. Blood samples were collected and analyzed as above.
# [2] = Oral administration of a reduced dose of propranolol-o-hemi-succinate hydrochloride; plasma levels of free propranolol (Example 4); format: in vivo, beagle dogs
# Method: Two beagle dogs were given an oral dose of 13.4 mg of propranolol-O-hemi-succinate hydrochloride (equivalent to 10 mg. propranolol HCl). Blood samples were obtained at regular intervals after drug administration and plasma analyzed for free propranolol. Plasma levels of free propranolol were compared to those obtained following administration of 80 mg dose of propranolol HCl.
# [3] = cited from earlier work
# [4] = Oral administration of propranolol-o-hemi-succinate HCl and propranolol HCl; plasma levels of free propranolol (Example 2); format: in vivo, beagle dogs; conditions: 80 mg propranolol HCl or equivalent
# Method: In this experiment, four beagle dogs were given an 80 mg. oral dose of propranolol HCl or an equivalent dose of the o-hemi-succinate. The animals were divided into two groups of two, each group receiving the drugs according to a crossover design. The crossover experiment was repeated twice. A period of at least one week elapsed between each dosing day. Blood samples were obtained at regular intervals after dosing a plasma was analyzed for free propranolol concentrations.
# as §1
structure (smiles),measurement,setting,value
"CC(C)NCC(O)COc1cccc2ccccc12 (centres unmarked) [propranolol HCl, 1-isopropyl-amino-3-(1-naphthoxy)-2-propanol]",Plasma level of free propranolol,"[1]; 0 h, individual dogs",0 ng/mL
same,Mean plasma level of free propranolol,"[1]; 0 h, mean",0 ng/mL
same,Plasma level of free propranolol,"[1]; 1/2 hr after dosing, individual dogs, 30 min",232 ng/mL and 269 ng/mL and 144 ng/mL
same,Plasma level of free propranolol,"[1]; 5 min after dosing, individual dogs, 5 min",391 ng/mL and 312 ng/mL and 376 ng/mL and 194 ng/mL
same,Plasma level of free propranolol,"[1]; 10 min after dosing, individual dogs, 10 min",368 ng/mL and 319 ng/mL and 177 ng/mL
same,Plasma level of free propranolol,"[1]; 15 min after dosing, individual dogs, 15 min",320 ng/mL and 271 ng/mL and 149 ng/mL
same,Plasma level of free propranolol,"[1]; 1 hr after dosing, individual dogs, 60 min",207 ng/mL and 229 ng/mL and 128 ng/mL
same,Plasma level of free propranolol,"[1]; 2 hr after dosing, individual dogs, 120 min",149 ng/mL and 119 ng/mL and 122 ng/mL
same,Plasma level of free propranolol,"[1]; 4 hr after dosing, individual dogs, 240 min",114 ng/mL and 87 ng/mL and 61 ng/mL
same,Plasma level of free propranolol,"[1]; 6 hr after dosing, individual dogs, 360 min",45 ng/mL and 28 ng/mL and 39 ng/mL
same,concentration at 0.5 h,"[1]; dog, plasma, iv, 20 mg, 1/2 hr after dosing, individual dogs, read-out: Plasma level of free propranolol",280 ng/mL
same,concentration at 0.5 h,"[1]; dog, plasma, iv, 20 mg, 1/2 hr after dosing, mean, read-out: Mean plasma level of free propranolol",231 ng/mL
same,concentration at 5 min,"[1]; dog, plasma, iv, 20 mg, 5 min after dosing, mean, read-out: Mean plasma level of free propranolol",318 ng/mL
same,concentration at 10 min,"[1]; dog, plasma, iv, 20 mg, 10 min after dosing, mean, read-out: Mean plasma level of free propranolol",288 ng/mL
same,concentration at 0.25 h,"[1]; dog, plasma, iv, 20 mg, 15 min after dosing, mean, read-out: Mean plasma level of free propranolol",247 ng/mL
same,concentration at 1 h,"[1]; dog, plasma, iv, 20 mg, 1 hr after dosing, individual dogs, read-out: Plasma level of free propranolol",240 ng/mL
same,concentration at 1 h,"[1]; dog, plasma, iv, 20 mg, 1 hr after dosing, mean, read-out: Mean plasma level of free propranolol",201 ng/mL
same,concentration at 2 h,"[1]; dog, plasma, iv, 20 mg, 2 hr after dosing, individual dogs, read-out: Plasma level of free propranolol",191 ng/mL
same,concentration at 2 h,"[1]; dog, plasma, iv, 20 mg, 2 hr after dosing, mean, read-out: Mean plasma level of free propranolol",145 ng/mL
same,concentration at 4 h,"[1]; dog, plasma, iv, 20 mg, 4 hr after dosing, mean, read-out: Mean plasma level of free propranolol",79 ng/mL
same,concentration at 6 h,"[1]; dog, plasma, iv, 20 mg, 6 hr after dosing, individual dogs, read-out: Plasma level of free propranolol",53 ng/mL
same,concentration at 6 h,"[1]; dog, plasma, iv, 20 mg, 6 hr after dosing, mean, read-out: Mean plasma level of free propranolol",41 ng/mL
same,AUC at 6 h,"[1]; dog, plasma, iv, 20 mg, individual dogs, read-out: AUC 0-6 hr of free propranolol",974 ng·h/mL
same,AUC at 6 h,"[1]; dog, plasma, iv, 20 mg, read-out: average AUC of free propranolol",746 ng·h/mL
same,AUC 0-6 hr of free propranolol,"[1]; individual dogs, 360 min",744 ng·h/mL and 615 ng·h/mL and 534 ng·h/mL
same,Plasma level of free propranolol,"[2]; 0 h, 80 mg propranolol HCl or 13.4 mg hemi-succinate HCl, individual dogs",0
same,AUC of free propranolol,"[2]; 13.4 mg hemi-succinate HCl or 80 mg propranolol HCl, dog #353 (101, 92), dog #250 (114, 168), 360 min",168
same,Plasma level of free propranolol,"[2]; 1/2 hour after dosing, 80 mg propranolol HCl or 13.4 mg hemi-succinate HCl, individual dogs, 30 min",18
same,Plasma level of free propranolol,"[2]; 1 hour after dosing, 80 mg propranolol HCl or 13.4 mg hemi-succinate HCl, individual dogs, 60 min",44
same,Plasma level of free propranolol,"[2]; 2 hours after dosing, 80 mg propranolol HCl or 13.4 mg hemi-succinate HCl, individual dogs, 120 min",51 and 24
same,Plasma level of free propranolol,"[2]; 4 hours after dosing, 80 mg propranolol HCl or 13.4 mg hemi-succinate HCl, individual dogs, 240 min",26 and 7
same,Plasma level of free propranolol,"[2]; 6 hours after dosing, 80 mg propranolol HCl or 13.4 mg hemi-succinate HCl, individual dogs",0
same,AUC at 6 h,"[2]; dog, plasma, po, 80 mg, 13.4 mg hemi-succinate HCl or 80 mg propranolol HCl, dog #353 (101, 92), dog #250 (114, 168)",92 ng·h/mL
same,concentration at 0.5 h,"[2]; dog, plasma, po, 80 mg, 1/2 hour after dosing, 80 mg propranolol HCl or 13.4 mg hemi-succinate HCl, individual dogs, read-out: Plasma level of free propranolol",10 ng/mL
same,concentration at 1 h,"[2]; dog, plasma, po, 80 mg, 1 hour after dosing, 80 mg propranolol HCl or 13.4 mg hemi-succinate HCl, individual dogs, read-out: Plasma level of free propranolol",38 ng/mL
same,concentration at 6 h,"[2]; dog, plasma, po, 80 mg, 6 hours after dosing, 80 mg propranolol HCl or 13.4 mg hemi-succinate HCl, individual dogs, read-out: Plasma level of free propranolol",9 ng/mL
same,unchanged active material reaching the systemic circulation after oral administration,[3]; because of extensive metabolism,little unchanged active material
same,patient to patient variation of plasma levels,[3]; oral,large patient to patient variation
same,Plasma level of free propranolol,"[4]; 0 h, individual dogs",0 ng/mL
same,Mean plasma level of free propranolol,"[4]; 0 h, mean of Study 1, Study 2 or overall",0 ng/mL
same,C.V. of overall mean AUC 0-6 hr,[4],65%
same,s.d. of overall mean AUC 0-6 hr,[4],87 ng·h/mL
same,AUC 0-6 hr of free propranolol,"[4]; individual dogs, listed as propranolol hydrochloride, 360 min",69 ng·h/mL and 63 ng·h/mL and 29 ng·h/mL and 160 ng·h/mL and 189 ng·h/mL and 171 ng·h/mL and 297 ng·h/mL and 99 ng·h/mL
same,Plasma level of free propranolol,"[4]; 1/2 hr after dosing, individual dogs",0 ng/mL
same,Plasma level of free propranolol,"[4]; 1/2 hr after dosing, individual dogs, 30 min, listed as propranolol hydrochloride, 30 min",23 ng/mL and 103 ng/mL and 24 ng/mL
same,Plasma level of free propranolol,"[4]; 1/2 hr after dosing, individual dogs, listed as propranolol hydrochloride",trace
same,Plasma level of free propranolol,"[4]; 1 hr after dosing, individual dogs, listed as propranolol hydrochloride",trace and 0 ng/ml
same,Plasma level of free propranolol,"[4]; 1 hr after dosing, individual dogs, listed as propranolol hydrochloride, 60 min",11 ng/mL and 56 ng/mL and 31 ng/mL and 101 ng/mL and 24 ng/mL
same,Plasma level of free propranolol,"[4]; 2 hr after dosing, individual dogs, listed as propranolol hydrochloride",trace
same,Plasma level of free propranolol,"[4]; 2 hr after dosing, individual dogs, listed as propranolol hydrochloride, 120 min",23 ng/mL and 14 ng/mL and 45 ng/mL and 51 ng/mL and 65 ng/mL and 19 ng/mL
same,Plasma level of free propranolol,"[4]; 4 hr after dosing, individual dogs, listed as propranolol hydrochloride",trace
same,Plasma level of free propranolol,"[4]; 4 hr after dosing, individual dogs, listed as propranolol hydrochloride, 240 min",26 ng/mL and 14 ng/mL and 12 ng/mL and 36 ng/mL and 33 ng/mL and 17 ng/mL
same,Plasma level of free propranolol,"[4]; 6 hr after dosing, individual dogs, listed as propranolol hydrochloride",0 ng/ml and trace
same,Plasma level of free propranolol,"[4]; 6 hr after dosing, individual dogs, listed as propranolol hydrochloride, 360 min",17 ng/mL and 21 ng/mL and 6 ng/mL
same,half-life,"[4]; dog, plasma",1.8 h
same,AUC at 6 h,"[4]; dog, plasma, po, 80 mg, read-out: average AUC (0-6 hr.) of free propranolol, overall study",132 ng·h/mL
